This note sets out measurements from US5710150A, “Benzazepine derivative, pharmaceutical composition thereof, and intermediate thereof” (Yamanouchi Pharmaceutical Co., Ltd., priority 1993, dated 1998).

For assay [1], the target named is T1, arginine vasopressin V1 receptor (Rattus norvegicus, UniProt P30560).
T1 construct: A rat liver membrane sample was prepared; from tissue; host or cells: rat liver membranes
In words: V1 receptor binding assay ([3H]-Arg-vasopressin, rat liver membrane). Particulars: for antagonism on V1 receptor (in words): compared with OPC-31260 and OPC-21268. As for the experimental part: (1) V1 receptor binding assay
A rat liver membrane sample was prepared in accordance with the method of Nakamura et al. (J. Biol. Chem., 258, 9283 (1983)), and [^3 H]-Arg-vasopressin (2 nM, specific activity=75.8 Ci/mmol), 70 μg of the membrane sample and each drug to be tested (10^-8 to 10^-4 M) were incubated at 30° C. for 30 minutes in 250 μl of 100 mM Tris-HCl buffer (pH=8.0) containing 5 mM of magnesium chloride, 1 mM of ethylenediaminetetraacetic acid (EDTA) and 0.1% of bovine serum albumin (BSA). Thereafter, the incubation solution was sucked off using a cell harvester and free ligand and excess buffer were removed by passing the reaction mixture through a glass filter (GF/B), thereby trapping receptor-bound labeled ligand on the glass filter. The glass filter was taken out, thoroughly dried and then mixed with a liquid scintillation cocktail, and the amount of the membrane-bound [^3 H]-vasopressin was measured using a liquid scintillation counter to calculate the inhibition ratio by the following formula. [formula] C1 : amount of [^3 H]-vasopressin bound to the membrane in the coexistence of known amount of each drug to be tested and [^3 H]-vasopressin
C0 : amount of [^3 H]-vasopressin bound to the membrane when the drug to be tested was not added
B1 : amount of [^3 H]-vasopressin bound to the membrane in the presence of excess vasopressin (10^-6 M)
[formula] [L]: concentration of radioactive ligand KD: dissociation constant calculated from Scatchard plot
Negative logarithm of the thus calculated Ki value was used as pKi value.

In assay [2] the target is arginine vasopressin V2 receptor (Oryctolagus cuniculus, UniProt G1TA00). In words: V2 receptor binding assay ([3H]-Arg-vasopressin, rabbit renal medulla membrane). Particulars: for antagonism on V2 receptor (in words): compared with OPC-31260 and OPC-21268; for Binding activity on arginine vasopressin V2 receptor (pKi): rabbit renal medulla membrane, [3H]-Arg-vasopressin 2 nM.
Chain of arginine vasopressin V2 receptor (G1TA00 78-446): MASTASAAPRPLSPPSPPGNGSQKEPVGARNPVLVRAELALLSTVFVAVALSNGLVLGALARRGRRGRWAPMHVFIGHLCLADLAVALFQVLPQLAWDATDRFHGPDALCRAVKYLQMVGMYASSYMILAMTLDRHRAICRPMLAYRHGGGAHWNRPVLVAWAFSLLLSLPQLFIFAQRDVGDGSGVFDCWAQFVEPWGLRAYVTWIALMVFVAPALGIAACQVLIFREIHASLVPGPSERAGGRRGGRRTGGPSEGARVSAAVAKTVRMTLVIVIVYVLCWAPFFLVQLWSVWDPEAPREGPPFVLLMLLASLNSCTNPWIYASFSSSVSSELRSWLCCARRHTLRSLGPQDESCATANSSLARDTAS

The subject of assay [3] is V1. The experiment in a line: V1 antagonism in conscious rats (oral administration), AVP-induced diastolic blood pressure increase. The format is in vivo, male Wister rats. To be noted: 1 mg/kg oral, 30 minutes to 6 hours after administration, AVP 30 mU/kg i.v.
Where [4] appears, read: rat liver membrane, [3H]-Arg-vasopressin 2 nM, 30° C., 30 minutes, pH 8.0, read-out: Binding activity on arginine vasopressin V1 receptor (pKi) (converted).

Counter-ions that a name gives are not always drawn. Like-named read-outs stand apart in the source and are kept apart here.

T1 sequence (P30560 whole entry): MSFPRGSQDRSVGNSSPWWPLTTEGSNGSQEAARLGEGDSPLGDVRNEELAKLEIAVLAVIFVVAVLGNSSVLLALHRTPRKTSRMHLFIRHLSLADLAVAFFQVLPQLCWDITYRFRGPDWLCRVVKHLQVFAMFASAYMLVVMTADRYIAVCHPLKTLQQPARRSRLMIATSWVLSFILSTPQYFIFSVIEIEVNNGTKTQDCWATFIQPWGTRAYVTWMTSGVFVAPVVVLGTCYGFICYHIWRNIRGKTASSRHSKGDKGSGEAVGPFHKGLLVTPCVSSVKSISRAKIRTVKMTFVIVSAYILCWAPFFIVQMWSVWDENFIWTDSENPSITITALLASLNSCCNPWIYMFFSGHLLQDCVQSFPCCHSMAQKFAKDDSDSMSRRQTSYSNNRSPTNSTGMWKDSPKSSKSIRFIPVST

For `CN1CCN(C(=O)/C=C2/c3ccccc3N(C(=O)c3ccc(NC(=O)c4ccccc4-c4ccccc4)cc3)CCC2(F)F)CC1.Cl` [Example 11, (Z)-4'-[[4,4-difluoro-5-(4-methyl-1-piperazinyl)carbonylmethylene-2,3,4,5-tetrahydro-1H-1-benzazepin-1-yl]carbonyl]-2-phenylbenzanilide hydrochloride], the “antagonism on V1 receptor (in words)” value in assay [1] was “excellent antagonisms on both V1 and V2 receptors”. In assay [1] (setting [4]), the Ki was 1290 pM. Besides, in assay [2], the “antagonism on V2 receptor (in words)” value is “excellent antagonisms on both V1 and V2 receptors”; the “Binding activity on arginine vasopressin V2 receptor (pKi)” value (“Binding activity” for short) came to 9.06. Moreover, the “Pressure increment by AVP (before compound = 100%)” value in assay [3] is reported as not above 50%.
As for `CN1CCCN(C(=O)/C=C2/c3ccccc3N(C(=O)c3ccc(NC(=O)c4ccccc4-c4ccccc4)cc3)CCC2(F)F)CC1.Cl` [Example 24, (Z)-4'-[[4,4-difluoro-5-[[(4-methylhexahydro-1,4-diazepin-1-yl)carbonyl]methylene]-2,3,4,5-tetrahydro-1H-1-benzazepin-1-yl]carbonyl]-2-phenylbenzanilide hydrochloride], in assay [1], the “antagonism on V1 receptor (in words)” value was “excellent antagonisms on both V1 and V2 receptors”. Further, the Ki in assay [1] (setting [4]) was 31.6 pM. In assay [2], the “antagonism on V2 receptor (in words)” value is “excellent antagonisms on both V1 and V2 receptors”; the “Binding activity” value came out at 9.26. For the same compound, the “Pressure increment by AVP (before compound = 100%)” value in assay [3] is given as not above 50%.
For `CN(C)C(=O)/C=C1/c2ccccc2N(C(=O)c2ccc(NC(=O)c3ccccc3-c3ccccc3)cc2)CCC1(F)F` [Example 129, (Z)-4'-[[5-(N,N-dimethylcarbamoylmethylene)-4,4-difluoro-2,3,4,5-tetrahydro1H-1-benzazepin-1-yl]carbonyl]-2-phenylbenzanilide], in assay [1] (setting [4]), the Ki was 479 pM. Further, the “Binding activity” value in assay [2] was determined as 8.24.
In the case of `O=C(Nc1ccc(C(=O)N2CCC(F)(F)/C(=C\C(=O)N3CCCNCC3)c3ccccc32)cc1)c1ccccc1-c1ccccc1` [Example 28, (Z)-4'-[[[5-[(hexahydro-1,4-diazepin-1-yl)carbonyl]methylene]-4,4-difluoro-2,3,4,5-tetrahydro-1H-1-benzazepin-1-yl]carbonyl]-2-phenylbenzanilide hydrochloride], in assay [1], the “antagonism on V1 receptor (in words)” value was “excellent antagonisms on both V1 and V2 receptors”. Also, the Ki in assay [1] (setting [4]) is 83.2 pM. In addition, in assay [2], the “antagonism on V2 receptor (in words)” value is “excellent antagonisms on both V1 and V2 receptors”; the “Binding activity” value came out at 9.37.
As for `Cl.O=C(/C=C1/c2ccccc2N(C(=O)c2ccc(NC(=O)c3ccccc3-c3ccccc3)cc2)CCC1(F)F)NC1CN2CCC1CC2` (racemic) [Example 85, (±)-(Z)-4'-[[4,4-difluoro-5-[[N-(3-quinuclidinyl)carbamoyl]methylene]-2,3,4,5-tetrahydro-1H-1-benzazepin-1-yl]carbonyl]-2-phenylbenzanilide hydrochloride], the “antagonism on V1 receptor (in words)” value in assay [1] was “excellent antagonisms on both V1 and V2 receptors”. For the same compound, the Ki in assay [1] (setting [4]) is 95.5 pM. In assay [2], the “antagonism on V2 receptor (in words)” value is “excellent antagonisms on both V1 and V2 receptors”; the “Binding activity” value is 9.97.
Regarding `CN(C)CCN(C)C(=O)/C=C1/c2ccccc2N(C(=O)c2ccc(NC(=O)c3ccccc3-c3ccccc3)cc2)CCC1(F)F` [Example 15, (Z)-4'-[4,4-difluoro-5-[[N-(2-dimethylaminoethyl)-N-methylcarbonylmethylene]-2,3,4,5-tetrahydro-1H-1-benzazepin-1-yl]carbonyl]-2-phenylbenzanilide hydrochloride], the “antagonism on V1 receptor (in words)” value in assay [1] is “excellent antagonisms on both V1 and V2 receptors”. Moreover, the Ki in assay [1] (setting [4]) is 162 pM. In assay [2], the “antagonism on V2 receptor (in words)” value is “excellent antagonisms on both V1 and V2 receptors”; the “Binding activity” value is recorded as 9.13.
Consider `Cl.O=C(Nc1ccc(C(=O)N2CCC(F)(F)/C(=C\C(=O)N3CCNCC3)c3ccccc32)cc1)c1ccccc1-c1ccccc1` [Example 12, (Z)-4'-[[4,4-difluoro-5-[(1piperazinylcarbonyl)methylene]-2,3,4,5-tetrahydro-1H-1-benzazepin-1-yl]carbonyl]-2-phenylbenzanilide hydrochloride], for which the “antagonism on V1 receptor (in words)” value in assay [1] was “excellent antagonisms on both V1 and V2 receptors”. For the same compound, the Ki in assay [1] (setting [4]) was 219 pM. Moreover, in assay [2], the “antagonism on V2 receptor (in words)” value was “excellent antagonisms on both V1 and V2 receptors”; the “Binding activity” value is 9.71.
Regarding `O=C(/C=C1/c2ccccc2N(C(=O)c2ccc(NC(=O)c3ccccc3-c3ccccc3)cc2)CCC1(F)F)NC1CC1` [Example 126], the Ki in assay [1] (setting [4]) was 288 pM. Also, the “Binding activity” value in assay [2] stood at 8.22.
As to `Cc1ccsc1C(=O)Nc1ccc(C(=O)N2CCC(F)(F)/C(=C\C(=O)N3CCC(N(C)C)CC3)c3ccccc32)cc1` [Example 111, (Z)-N-[4-[[4,4-difluoro-5-[[(4-dimethylaminopiperidino)carbonyl]methylene]-2,3,4,5-tetrahydro-1H-1-benzazepin-1-yl]carbonyl]phenyl]-3-methylthiophene-2-carboxyamide hydrochloride], the Ki in assay [1] is 562 pM. In addition, the “Binding activity” value in assay [2] is listed as 7.79.
Turning to `CN(C)C1CCN(C(=O)/C=C2/c3ccccc3N(C(=O)c3ccc(NC(=O)c4cccc5ccccc45)cc3)CCC2(F)F)CC1` [Example 109, (Z)-N-[4'-[[4,4-difluoro-5-[[(4-dimethylaminopiperidino)carbonyl]methylene]-2,3,4,5-tetrahydro-1H-1-benzazepin-1-yl]carbonyl]phenylnaphthalene-1-carboxyamide hydrochloride], the Ki in assay [1] (setting [4]) was 3980 pM. Also, the “Binding activity” value in assay [2] came to 8.06.
On to `Cl.O=C(Nc1ccc(C(=O)N2CCC(F)(F)/C(=C\CN3CCCC3)c3ccccc32)cc1)c1ccccc1-c1ccccc1` [Example 81, (Z)-4'-[[4,4-difluoro-5-[2-(1-pyrrolidinyl)ethylidene]-2,3,4,5-tetrahydro-1H-1-benzazepin-1-yl]carbonyl]-2-phenylbenzanilide hydrochloride], for which the Ki in assay [1] (setting [4]) is 724 pM. Moreover, the “Binding activity” value in assay [2] is recorded as 8.64.
Take `O=C(Nc1ccc(C(=O)N2CCC(F)(F)/C(=C\C(=O)N3CCCC3)c3ccccc32)cc1)c1ccccc1-c1ccccc1` [Example 131]: the Ki in assay [1] (setting [4]) was 708 pM. For the same compound, the “Binding activity” value in assay [2] is reported as 7.99.
In turn, `Cc1ccc(-c2ccccc2C(=O)Nc2ccc(C(=O)N3CCC(F)(F)/C(=C\C#N)c4ccccc43)cc2)cc1` [Compound 22 (a), 4'-[(5-cyanomethylene-4,4-difluoro-2,3,4,5-tetrahydro-1H-1-benzazepin-1-yl)carbonyl]-2-(4methylphenyl)benzanilide] gave a Ki in assay [1] of 9550 pM. The “Binding activity” value in assay [2] was 8.36.
On to `CNC(=O)/C=C1/c2ccccc2N(C(=O)c2ccc(NC(=O)c3ccccc3-c3ccccc3)cc2)CCC1(F)F` [Example 122, (Z)-4'-[[4,4-difluoro-5-(N-methylcarbamoylmethylene)-2,3,4,5-tetrahydro-1H-1-benzazepin-1-yl]carbonyl]-2-phenylbenzanilide], for which the Ki in assay [1] (setting [4]) is 355 pM. Besides, the “Binding activity” value in assay [2] is listed as 8.94.
Taken in the same sequence, the figures for `O=C(/C=C1/c2ccccc2N(C(=O)c2ccc(NC(=O)c3ccccc3-c3ccccc3)cc2)CCC1(F)F)NCc1ccccc1` [Example 127, (Z)-4'-[[4,4-difluoro-5-[(N-benzylcarbamoyl)methylene]-2,3,4,5-tetrahydro-1H-1-benzazepin-1-yl]carbonyl]-2-phenylbenzanilide] were 1740 pM and 8.19.
Taken in the same sequence, the figures for `COCCNC(=O)/C=C1/c2ccccc2N(C(=O)c2ccc(NC(=O)c3ccccc3-c3ccccc3)cc2)CCC1(F)F` [Example 135, (Z)-4'-[[4,4-difluoro-5-[N-(2-methoxyethyl)carbamoylmethylene]-2,3,4,5-tetrahydro-1H-1-benzazepin-1-yl]carbonyl]-2-phenylbenzanilide] were 195 pM and 8.11.
Take `CCc1nccn1-c1ccccc1C(=O)Nc1ccc(C(=O)N2CCC(F)(F)/C(=C\C(=O)NC)c3ccccc32)cc1` [Example 104, (Z)-2-(2-ethyl-1H-imidazol-1-yl)-4'-[[4,4-difluoro-5-[(N-methylcarbamoyl)methylene]-2,3,4,5-tetrahydro-1H-1-benzazepin-1-yl]carbonyl]benzanilide]: the “V1 selectivity (in words)” value in assay [1] (V1 versus V2 receptor binding) is recorded as “excellent in V1 selectivity”. The Ki in assay [1] (setting [4]) was 977 pM. Besides, in assay [1] (versus OPC-21268), the “V1 receptor antagonism compared with OPC-21268 (in words)” value is “markedly stronger V1 receptor antagonism than that of OPC-21268”. Further, the “Binding activity” value in assay [2] is listed as 6.68.
